Measurements as given in patent US9029384B2, “Phosphatidylinositol 3-kinase inhibitors” (Gilead Calistoga LLC, priority 2012, dated 2015).
Like-named read-outs stand apart in the source and are kept apart here.

Assays:
[1] = system: basophils; test: Basophil activation in human whole blood (Flow2 CAST kit, CD63 positive cells); assay type: cell-based; conditions: Homo sapiens
Outline: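 Human whole blood (K2-EDTA) preincubated 60 minutes at 37° C with compound serial dilutions or DMSO (0.3% final), then stimulated with anti-FcεRI mAb or fMLP and stained for CD63/CCR3. Percent CD63+ among ≥200 CCR3-high basophils by flow cytometry, normalized to stimulated vehicle as 100%. EC50 from four-parameter fits, geometric means in nM, concentrations corrected for reagent dilution.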

[2] = Hepatocyte stability, 0.01% final DMSO, 1 μM substrate (t1/2^b); assay type: in vitro ADME; conditions: human, hepatocytes, TA with 0.01% final DMSO
Protocol: Alternatively, assay reagents and/or conditions can be modified in determining the inhibitory activities to PI3K isomers. In additional studies, similar assay using TA and 0.01% final DMSO concentration were incubated with 1 million hepatocytes/mL at 1 μM substrate in duplicate. The incubation was carried out at 37° C. with 5% CO2 and saturating humidity.

[3] = Hepatocyte stability, 1% final DMSO, 2 μM substrate (t1/2^a); assay type: in vitro ADME; conditions: human, cryopreserved hepatocytes, TA with 1% final DMSO
Protocol: This assay was used to evaluate the metabolic stability of test articles (TA) following incubation in cryopreserved hepatocytes by monitoring parent drug disappearance via […]. The TA with 1% final DMSO concentration was incubated with 1 million hepatocytes/ml at 2 μM substrate in duplicate. The incubation was carried out at 37° C. with 5% CO2 and saturating humidity.

[4] = target: T1, PI3Kδ (Homo sapiens, UniProt O00329); test: Enzymatic activity of PI3K isoforms, TR-FRET assay (PIP3 formation); assay type: biochemical
T1 construct: made in house
Outline: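 Recombinant heterodimeric class I PI3K; PIP3 product measured by TR-FRET competition with labelled PIP3 for Eu-GRP-1 PH domain. Reaction 30 min at 25 °C, stopped with 10 mM EDTA.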

[5] = basophils activated with anti-FcεRI mAb or fMLP, geometric mean
[6] = 1 μM substrate, samples at 0, 1, 3, 6 hours, read-out: human hepatocyte t½^b
[7] = 2 μM substrate, samples at 0, 1, 2, 4 hours, read-out: human hepatocyte t½^a
[8] = PI3Kδ, TR-FRET, 2×Km ATP, 10 μM PIP2, read-out: IC50
[9] = human hepatocytes, read-out: t1/2^b
[10] = human hepatocytes, read-out: t1/2^a

T1 sequence (O00329 whole entry, canonical isoform): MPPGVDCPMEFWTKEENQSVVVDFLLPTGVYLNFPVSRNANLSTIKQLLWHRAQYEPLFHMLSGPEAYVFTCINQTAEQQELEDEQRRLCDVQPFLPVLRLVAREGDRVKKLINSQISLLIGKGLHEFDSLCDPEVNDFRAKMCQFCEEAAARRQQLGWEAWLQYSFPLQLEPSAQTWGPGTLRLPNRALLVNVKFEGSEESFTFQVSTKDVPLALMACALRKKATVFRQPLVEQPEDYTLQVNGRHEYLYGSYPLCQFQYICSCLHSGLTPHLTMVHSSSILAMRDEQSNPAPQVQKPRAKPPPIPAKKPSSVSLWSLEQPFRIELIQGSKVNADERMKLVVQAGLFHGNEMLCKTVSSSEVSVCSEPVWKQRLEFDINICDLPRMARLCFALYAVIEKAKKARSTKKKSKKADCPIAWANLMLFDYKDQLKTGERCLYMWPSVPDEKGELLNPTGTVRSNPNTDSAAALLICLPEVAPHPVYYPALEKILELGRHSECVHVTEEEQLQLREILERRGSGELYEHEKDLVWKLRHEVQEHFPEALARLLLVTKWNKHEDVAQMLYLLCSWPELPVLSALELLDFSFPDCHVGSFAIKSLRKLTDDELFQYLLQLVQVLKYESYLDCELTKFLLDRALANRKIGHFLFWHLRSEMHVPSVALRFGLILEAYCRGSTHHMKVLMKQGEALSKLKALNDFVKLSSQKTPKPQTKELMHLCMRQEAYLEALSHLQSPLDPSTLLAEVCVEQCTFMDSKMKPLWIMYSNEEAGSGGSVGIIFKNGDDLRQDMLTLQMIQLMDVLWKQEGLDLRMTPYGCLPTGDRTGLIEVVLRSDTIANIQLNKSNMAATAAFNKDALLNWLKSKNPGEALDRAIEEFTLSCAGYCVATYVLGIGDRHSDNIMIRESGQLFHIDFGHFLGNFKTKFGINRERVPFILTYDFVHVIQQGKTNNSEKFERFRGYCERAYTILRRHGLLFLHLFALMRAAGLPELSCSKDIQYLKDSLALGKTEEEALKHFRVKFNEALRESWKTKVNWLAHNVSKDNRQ
T1 sequence (P27986 whole entry partner, canonical isoform): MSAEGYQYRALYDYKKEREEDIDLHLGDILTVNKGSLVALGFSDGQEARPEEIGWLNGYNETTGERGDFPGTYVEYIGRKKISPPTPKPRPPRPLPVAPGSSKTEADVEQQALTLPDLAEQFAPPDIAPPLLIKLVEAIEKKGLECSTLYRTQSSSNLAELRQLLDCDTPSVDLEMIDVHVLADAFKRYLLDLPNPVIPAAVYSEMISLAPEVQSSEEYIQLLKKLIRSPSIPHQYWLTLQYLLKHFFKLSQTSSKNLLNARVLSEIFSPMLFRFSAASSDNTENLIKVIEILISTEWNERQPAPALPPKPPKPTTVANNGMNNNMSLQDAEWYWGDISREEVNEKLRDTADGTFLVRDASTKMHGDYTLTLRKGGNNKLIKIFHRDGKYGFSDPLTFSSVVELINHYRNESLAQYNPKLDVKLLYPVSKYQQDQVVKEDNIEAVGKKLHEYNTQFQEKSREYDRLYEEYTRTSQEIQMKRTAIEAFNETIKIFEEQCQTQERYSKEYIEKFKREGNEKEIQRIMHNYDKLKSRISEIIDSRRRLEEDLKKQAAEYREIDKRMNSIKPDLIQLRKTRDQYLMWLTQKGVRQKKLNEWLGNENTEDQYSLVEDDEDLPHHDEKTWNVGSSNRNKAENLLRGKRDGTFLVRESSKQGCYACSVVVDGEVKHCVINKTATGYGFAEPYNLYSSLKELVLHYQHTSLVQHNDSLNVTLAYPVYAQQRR

Row | SMILES | EC50 [1, 5] [nM] | half-life at 1 μM [2, 6] [h] | half-life at 2 μM [3, 7] [h] | IC50 [4, 8] [nM] | EC50 ([1]; basophil activation) [nM] | half-life at 1 μM [2, 9] [h] | half-life at 2 μM [3, 10] [h] | IC50 [4] [nM]
1 | CC(Nc1nc(N)nc(N)c1C#N)c1nc2cccc(F)c2c(=O)n1-c1cc(F)cc(F)c1 (single isomer, unassigned) [Compound 10a] | 1 to 10 | 3 to 6 | > 10 | 1 to 10 | – | – | – | –
2 | CC(Nc1nc(N)nc(N)c1C#N)c1nc2ccc(F)cc2c(=O)n1-c1cc(F)cc(F)c1 (single isomer, unassigned) [Compound 11a] | 1 to 10 | 6 to 10 | > 10 | 1 to 10 | – | – | – | –
3 | CC(Nc1nc(N)nc(N)c1C#N)c1nc2c(F)cccc2c(=O)n1-c1cc(F)cc(F)c1 (single isomer, unassigned) [Compound 16a] | 1 to 10 | 3 to 6 | > 10 | 1 to 10 | – | – | – | –
4 | CCC(Nc1nc(N)nc(N)c1C#N)c1nc2c(F)cccc2c(=O)n1-c1cc(F)cc(F)c1 (single isomer, unassigned) [Compound 17a] | < 1 | 6 to 10 | > 10 | 1 to 10 | – | – | – | –
5 | CC(Nc1nc(N)nc(N)c1C#N)c1nc2c(F)ccc(F)c2c(=O)n1-c1cc(F)cc(F)c1 (single isomer, unassigned) [Compound 21a] | 1 to 10 | 3 to 6 | 6 to 10 | 1 to 10 | – | – | – | –
6 | CCC(Nc1nc(N)nc(N)c1C#N)c1nc2c(F)ccc(F)c2c(=O)n1-c1cc(F)cc(F)c1 (single isomer, unassigned) [Compound 27a] | 1 to 10 | 1 to 3 | > 10 | 10 to 50 | – | – | – | –
7 | CCC(Nc1nc(N)nc(N)c1C#N)c1nc2ccccc2c(=O)n1-c1cc(F)cc(F)c1 (single isomer, unassigned) [Compound 36a] | 1 to 10 | > 10 | > 10 | 10 to 50 | – | – | – | –
8 | CCC(Nc1nc(N)nc(N)c1C#N)c1nc2c(C)ccc(F)c2c(=O)n1-c1cc(F)cc(F)c1 (single isomer, unassigned) [Compound 37a] | 10 to 50 | 3 to 6 | 6 to 10 | 10 to 50 | – | – | – | –
9 | CC(Nc1nc(N)nc(N)c1C#N)c1nc2cccc(F)c2c(=O)n1-c1cccc(C#N)c1 (single isomer, unassigned) [Compound 38a] | 1 to 10 | > 10 | > 10 | 10 to 50 | – | – | – | –
10 | CC(Nc1nc(N)nc(N)c1C#N)c1nc2cccc(F)c2c(=O)n1-c1cc(Cl)cc(Cl)c1 (single isomer, unassigned) [Compound 42a] | 1 to 10 | 1 to 3 | > 10 | 10 to 50 | – | – | – | –
11 | CC(Nc1nc(N)nc(N)c1C#N)c1nc2cccc(F)c2c(=O)n1-c1cc(F)cc(Cl)c1 (single isomer, unassigned) [Compound 44a] | 10 to 50 | 1 to 3 | > 10 | 10 to 50 | – | – | – | –
12 | CC(Nc1nc(N)nc(N)c1C#N)c1nc2cccc(Cl)c2c(=O)n1-c1ccccc1 (single isomer, unassigned) [Compound 49a] | < 1 | 3 to 6 | > 10 | < 1 | < 0.5 | > 4 | > 10 | –
13 | CC(Nc1nc(N)nc(N)c1C#N)c1nc2cccc(C(F)F)c2c(=O)n1-c1cc(F)cc(F)c1 (single isomer, unassigned) [Compound 52a] | 1 to 10 | 6 to 10 | > 10 | 1 to 10 | – | – | – | –
14 | CC(Nc1nc(N)nc(N)c1C#N)c1nc2cccc(F)c2c(=O)n1-c1cc(F)cc(C(F)F)c1 (single isomer, unassigned) [Compound 54a] | 1 to 10 | 3 to 6 | > 10 | 10 to 50 | – | – | – | –
15 | Cc1ccc(F)c2c(=O)n(-c3ccccc3)c(C(C)Nc3nc(N)nc(N)c3C#N)nc12 (single isomer, unassigned) [Compound 61a] | < 1 | 3 to 6 | > 10 | 1 to 10 | – | – | – | –
16 | CC(Nc1nc(N)nc(N)c1C#N)c1nc2c(Cl)ccc(F)c2c(=O)n1-c1cc(F)cc(F)c1 (single isomer, unassigned) [Compound 67a] | 1 to 10 | 1 to 3 | > 10 | 1 to 10 | – | – | – | –
17 | CC(Nc1nc(N)nc(N)c1C#N)c1nc2c(Cl)cccc2c(=O)n1-c1cc(F)cc(F)c1 (single isomer, unassigned) [Compound 71a] | 1 to 10 | 1 to 3 | > 10 | 1 to 10 | – | – | – | –
18 | CC(Nc1nc(N)nc(N)c1C(N)=O)c1nc2cccc(Cl)c2c(=O)n1-c1cc(F)cc(F)c1 (single isomer, unassigned) [Compound 90a] | 1 to 10 | 3 to 6 | > 10 | 1 to 10 | – | – | – | –
19 | CC(Nc1nc(N)nc(N)c1C#N)c1nc2cccc(F)c2c(=O)n1-c1cccc(C(F)F)c1 (single isomer, unassigned) [Compound 97a] | 1 to 10 | 3 to 6 | > 10 | 1 to 10 | – | – | – | –
20 | CC(Nc1nc(N)nc(N)c1C#N)c1nc2c(C#N)cccc2c(=O)n1-c1cc(F)cc(F)c1 (single isomer, unassigned) [Compound 101a] | 1 to 10 | 3 to 6 | > 10 | 1 to 10 | – | – | – | –
21 | CC(Nc1nc(N)nc(N)c1C#N)c1nc2cccc(Cl)c2c(=O)n1-c1cccc(C(F)F)c1 (single isomer, unassigned) [Compound 106a] | 1 to 10 | 1 to 3 | > 10 | < 1 | – | – | – | –
22 | CC(Nc1nc(N)nc(N)c1C#N)c1nc2cccc(Cl)c2c(=O)n1-c1cccc(F)c1 (single isomer, unassigned) [Compound 108a] | 1 to 10 | 3 to 6 | > 10 | < 1 | – | – | – | –
23 | CC(Nc1nc(N)nc(N)c1C#N)c1nc2c(C#N)cccc2c(=O)n1-c1ccccc1 (single isomer, unassigned) [Compound 122a] | 1 to 10 | > 10 | > 10 | 1 to 10 | – | – | – | –
24 | C[C@H](Nc1nc(N)nc(N)c1C#N)c1nc2cccc(Cl)c2c(=O)n1-c1cc(F)cc(F)c1 [Compound 1a, 2,4-diamino-6-((1-(5-chloro-3-(3,5-difluorophenyl)-4-oxo-3,4-dihydroquinazolin-2-yl)ethyl)amino)pyrimidine-5-carbonitrile] | < 1 | 1 to 3 | 6 to 10 | < 1 | < 0.5 | > 1 | > 9 | –
25 | CC[C@H](Nc1nc(N)nc(N)c1C#N)c1nc2cccc(F)c2c(=O)n1-c1cc(F)cc(F)c1 [Compound 77a, (S)-2,4-diamino-6-((1-(3-(3,5-difluorophenyl)-5-fluoro-4-oxo-3,4-dihydroquinazolin-2-yl)propyl)amino)pyrimidine-5-carbonitrile] | 1 to 10 | 1 to 3 | > 10 | 1 to 10 | – | – | – | –
26 | C[C@H](Nc1ncnc2[nH]cnc12)c1nc2cccc(Cl)c2c(=O)n1-c1ccccc1 [X, reference compound] | 1 to 10 | – | 1 to 3 | – | > 5 | < 2 | < 1 | –
27 | C[C@H](Nc1ncnc(N)c1C#N)c1nc2cccc(Cl)c2c(=O)n1-c1ccccc1 [Y, reference compound] | 10 to 50 | – | < 1 | – | > 15 | < 2 | < 2 | < 1
28 | C[C@H](Nc1ncnc(N)c1C#N)c1nc2cccc(Cl)c2c(=O)n1-c1cc(F)cc(F)c1 [Z, reference compound] | 10 to 50 | – | 1 to 3 | – | > 10 | < 2 | < 3 | 1 to 10
